Laboratory results reported in the NIST ThermoML archive (doi:10.1021/acs.jced.8b01097).
Numbers after ± are expanded uncertainties.

Columns and labels:
[1] = 85 kPa, Liquid; for viscosity: Concentric cylinders viscometry; for mass density: Vibrating tube method
[2] = xn = mol fraction of the nth substance listed; details: 85 kPa, Liquid; for viscosity: Concentric cylinders viscometry; for mass density: Vibrating tube method

Row | viscosity ([1]; 293.15 K) [mPa·s] | mass density ([1]; 293.15 K) [kg/m3] | viscosity ([1]; 298.15 K) [mPa·s] | mass density ([1]; 298.15 K) [kg/m3] | viscosity ([1]; 303.15 K) [mPa·s] | mass density ([1]; 303.15 K) [kg/m3] | viscosity ([1]; 308.15 K) [mPa·s] | mass density ([1]; 308.15 K) [kg/m3] | viscosity ([1]; 313.15 K) [mPa·s] | mass density ([1]; 313.15 K) [kg/m3] | viscosity ([1]; 318.15 K) [mPa·s] | mass density ([1]; 318.15 K) [kg/m3] | viscosity ([1]; 323.15 K) [mPa·s] | mass density ([1]; 323.15 K) [kg/m3] | other results | Structure (SMILES)
1 | 37.33 ± 2.3 | 987.8 ± 1.3 | 28.59 ± 1.7 | 984.3 ± 1.2 | 22.31 ± 1.4 | 980.3 ± 1.2 | 17.67 ± 1.1 | 976.2 ± 1.2 | 14.21 ± 0.86 | 972.3 ± 1.2 | 11.58 ± 0.7 | 968.5 ± 1.2 | 9.546 ± 0.58 | 964.9 ± 1.2 |  | NCCCO [3-amino-1-propanol]
2 | 3.743 ± 0.23 | 806.2 ± 1 | 3.101 ± 0.19 | 802 ± 1 | 2.579 ± 0.16 | 797.9 ± 1 | 2.162 ± 0.13 | 793.6 ± 1 | 1.828 ± 0.11 | 789.2 ± 1 | 1.559 ± 0.094 | 784.7 ± 1 | 1.318 ± 0.08 | 780.2 ± 1 |  | CCC(C)O (stereo not drawn) [butan-2-ol]
3 |  |  |  |  |  |  |  |  |  |  |  |  |  |  | viscosity ([2]; 293.15 K, x1 = 1): 3.743 ± 0.23 mPa·s; mass density ([2]; 293.15 K, x1 = 1): 806.2 ± 1 kg/m3; viscosity ([2]; 298.15 K, x1 = 1): 3.101 ± 0.19 mPa·s; mass density ([2]; 298.15 K, x1 = 1): 802 ± 1 kg/m3; viscosity ([2]; 303.15 K, x1 = 1): 2.579 ± 0.16 mPa·s; mass density ([2]; 303.15 K, x1 = 1): 797.9 ± 1 kg/m3; viscosity ([2]; 308.15 K, x1 = 1): 2.162 ± 0.13 mPa·s; mass density ([2]; 308.15 K, x1 = 1): 793.6 ± 1 kg/m3; viscosity ([2]; 313.15 K, x1 = 1): 1.828 ± 0.11 mPa·s; mass density ([2]; 313.15 K, x1 = 1): 789.2 ± 1 kg/m3; viscosity ([2]; 318.15 K, x1 = 1): 1.559 ± 0.094 mPa·s; mass density ([2]; 318.15 K, x1 = 1): 784.7 ± 1 kg/m3; viscosity ([2]; 323.15 K, x1 = 1): 1.318 ± 0.08 mPa·s; mass density ([2]; 323.15 K, x1 = 1): 780.2 ± 1 kg/m3 | CCC(C)O (stereo not drawn) [butan-2-ol] + NCCCO
4 | 2.215 ± 0.13 | 803.5 ± 1 | 1.97 ± 0.12 | 799.4 ± 1 | 1.752 ± 0.11 | 795.4 ± 1 | 1.563 ± 0.094 | 791.3 ± 1 | 1.399 ± 0.085 | 787.2 ± 1 | 1.255 ± 0.076 | 783.1 ± 1 | 1.129 ± 0.068 | 778.9 ± 1 |  | CCCO [propan-1-ol]
5 |  |  |  |  |  |  |  |  |  |  |  |  |  |  | viscosity ([2]; 293.15 K, x2 = 0): 2.215 ± 0.13 mPa·s; mass density ([2]; 293.15 K, x2 = 0): 803.5 ± 1 kg/m3; viscosity ([2]; 298.15 K, x2 = 0): 1.97 ± 0.12 mPa·s; mass density ([2]; 298.15 K, x2 = 0): 799.4 ± 1 kg/m3; viscosity ([2]; 303.15 K, x2 = 0): 1.752 ± 0.11 mPa·s; mass density ([2]; 303.15 K, x2 = 0): 795.4 ± 1 kg/m3; viscosity ([2]; 308.15 K, x2 = 0): 1.563 ± 0.094 mPa·s; mass density ([2]; 308.15 K, x2 = 0): 791.3 ± 1 kg/m3; viscosity ([2]; 313.15 K, x2 = 0): 1.399 ± 0.085 mPa·s; mass density ([2]; 313.15 K, x2 = 0): 787.2 ± 1 kg/m3; viscosity ([2]; 318.15 K, x2 = 0): 1.255 ± 0.076 mPa·s; mass density ([2]; 318.15 K, x2 = 0): 783.1 ± 1 kg/m3; viscosity ([2]; 323.15 K, x2 = 0): 1.129 ± 0.068 mPa·s; mass density ([2]; 323.15 K, x2 = 0): 778.9 ± 1 kg/m3 | CCCO [propan-1-ol] + CCC(C)O
6 | 2.429 ± 0.15 | 784.9 ± 1 | 2.095 ± 0.13 | 780.7 ± 1 | 1.808 ± 0.11 | 776.4 ± 1 | 1.567 ± 0.094 | 772.1 ± 1 | 1.366 ± 0.082 | 767.6 ± 1 | 1.195 ± 0.072 | 763.1 ± 1 | 1.052 ± 0.064 | 758.5 ± 1 |  | CC(C)O [propan-2-ol]
7 |  |  |  |  |  |  |  |  |  |  |  |  |  |  | viscosity ([2]; 293.15 K, x2 = 0): 2.429 ± 0.15 mPa·s; mass density ([2]; 293.15 K, x2 = 0): 784.9 ± 1 kg/m3; viscosity ([2]; 298.15 K, x2 = 0): 2.095 ± 0.13 mPa·s; mass density ([2]; 298.15 K, x2 = 0): 780.7 ± 1 kg/m3; viscosity ([2]; 303.15 K, x2 = 0): 1.808 ± 0.11 mPa·s; mass density ([2]; 303.15 K, x2 = 0): 776.4 ± 1 kg/m3; viscosity ([2]; 308.15 K, x2 = 0): 1.567 ± 0.094 mPa·s; mass density ([2]; 308.15 K, x2 = 0): 772.1 ± 1 kg/m3; viscosity ([2]; 313.15 K, x2 = 0): 1.366 ± 0.082 mPa·s; mass density ([2]; 313.15 K, x2 = 0): 767.6 ± 1 kg/m3; viscosity ([2]; 318.15 K, x2 = 0): 1.195 ± 0.072 mPa·s; mass density ([2]; 318.15 K, x2 = 0): 763.1 ± 1 kg/m3; viscosity ([2]; 323.15 K, x2 = 0): 1.052 ± 0.064 mPa·s; mass density ([2]; 323.15 K, x2 = 0): 758.5 ± 1 kg/m3 | CC(C)O [propan-2-ol] + CCC(C)O
